This is an account of results in patent US12071425B2 (Genentech, Inc., priority 2018, dated 2024).

Counter-ions that a name gives are not always drawn.

kinase domain of IRE1 alpha (His-tagged kinase dead construct KR, AA G547-L977, D688N), sequence (O75460 547-977 D688N): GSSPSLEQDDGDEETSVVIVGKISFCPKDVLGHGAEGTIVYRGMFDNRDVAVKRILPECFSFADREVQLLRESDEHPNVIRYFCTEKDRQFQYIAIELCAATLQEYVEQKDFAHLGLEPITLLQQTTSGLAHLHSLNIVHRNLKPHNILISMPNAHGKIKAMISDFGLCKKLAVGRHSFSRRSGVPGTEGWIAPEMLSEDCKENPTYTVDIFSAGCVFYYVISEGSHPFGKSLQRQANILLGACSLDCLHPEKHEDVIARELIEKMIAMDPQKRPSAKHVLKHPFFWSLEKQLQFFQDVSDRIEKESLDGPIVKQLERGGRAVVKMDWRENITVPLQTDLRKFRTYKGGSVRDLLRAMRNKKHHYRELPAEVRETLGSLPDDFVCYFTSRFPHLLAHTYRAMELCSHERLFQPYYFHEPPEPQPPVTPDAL

The test has as its target kinase domain of IRE1 alpha (His-tagged kinase dead construct KR, AA G547-L977, D688N) (Homo sapiens (Human), UniProt O75460, D688N). Nature of the test: IRE1α TR-FRET competition binding assay. The conditions noted are these: competition with Kinase Tracer 236, 0.1 μM; one hour at room temperature. The procedure:
To determine the affinity of compound binding to the kinase domain of IRE1 alpha, a Time Resolved Fluorescence Resonance Energy Transfer (TR-FRET) competition assay was used. A His-tagged IRE1 alpha kinase dead construct containing the kinase and RNase domains (KR, AA G547-L977, D688N) was expressed in Sf9 insect cells. The purified protein (final concentration 0.006 μM micromolar) was pre-incubated with anti-His Europium labeled antibody (Life Technologies PV5596, final concentration 0.002 μM micromolar) for one hour at 4° C. in 1X TR-FRET Assay Buffer (50 mM HEPES, pH 7.5.10 mM MgCl2, 0.083 mM Brij 35, 1 mM DTT, and 0.1% bovine gamma globulin) prior to addition to test compounds. A fluorescent labeled probe based on an ATP competitive inhibitor (Kinase Tracer 236, Life Technologies PV5592) is added to a final concentration of 0.1 μM (micromolar). Reactions were carried out for one hour at room temperature in a final volume of 20 μL (microliter) in 384 well white ProxiPlates (Perkin Elmer 6008289). Binding of the tracer to the IRE1 protein alpha was detected in an Envision instrument (PerkinElmer) equipped with a TRF laser option and a LANCE/Delfia Dual/Bias D400/D630 mirror (Ex 347 nm, 1st Em 665 nm, 2nd Em 615 nm).
Exemplary compounds in Table A1 were tested in the IRE1α binding assays.
For orientation: IC50 means the concentration that gives 50% inhibition. In turn, `CC(c1ccc(C#N)cc1)S(=O)(=O)Nc1ccc(Oc2ncccc2-c2ccnc(N[C@H]3CCCNC3)n2)c(F)c1F` (stereo partly drawn) [Compound 379, 1-(4-Cyanophenyl)-N-(2,3-difluoro-4-((3-(2-(((S)-piperidin-3-yl)amino)pyrimidin-4-yl)pyridin-2-yl)oxy)phenyl)ethane-1-sulfonamide] yielded an IC50 of 0.3 nM. In other words, the sub-nanomolar range. On to `Cc1cc(NS(=O)(=O)Cc2ccccc2)c(F)c(F)c1Oc1ncccc1-c1ccnc(N[C@H]2CCCNC2)n1` [Compound 155, (S)-N-(2,3-difluoro-5-methyl-4-((3-(2-(piperidin-3-ylamino)pyrimidin-4-yl)pyridin-2-yl)oxy)phenyl)-1-phenylmethanesulfonamide], for which the IC50 stood at 4.5 nM. For `O=S(=O)(Cc1ccccc1)Nc1ccc(Oc2ncccc2-c2ccnc(N[C@H]3CCCNC3)n2)c(F)c1F` [Compound 108, (S)-N-(2,3-difluoro-4-((3-(2-(piperidin-3-ylamino)pyrimidin-4-yl)pyridin-2-yl)oxy)phenyl)-1-phenylmethanesulfonamide hydrochloride] the value was 3.4 nM; for `Cc1c(NC(=O)Cc2ccc(Cl)cc2)ccc(Oc2ncccc2-c2ccnc(N[C@H]3CCCNC3)n2)c1C` [Compound 130, (S)-2-(4-Chlorophenyl)-N-(2,3-dimethyl-4-((3-(2-(piperidin-3-ylamino)pyrimidin-4-yl)pyridin-2-yl)oxy)phenyl)acetamide], 170 nM; for `O=S(=O)(Cc1ccc(F)cc1)Nc1ccc(Oc2ncccc2-c2ccnc(N[C@H]3CCCNC3)n2)c(F)c1F` [Compound 235, (S)-N-(2,3-difluoro-4-(3-(2-(piperidin-3-ylamino)pyrimidin-4-yl)pyridin-2-yloxy)phenyl)-1-(4-fluorophenyl)methanesulfonamide], 4 nM. In turn, `N#Cc1ccc(CS(=O)(=O)Nc2c(F)cc(Oc3ncccc3-c3ccnc(N[C@@H]4CNC[C@@H](F)C4)n3)c(F)c2F)cc1` [Compound 191, 1-(4-cyanophenyl)-N-(2,3,6-trifluoro-4-((3-(2-(((3S,5S)-5-fluoropiperidin-3-yl)amino)pyrimidin-4-yl)pyridin-2-yl)oxy)phenyl)methanesulfonamide] displayed an IC50 of 4.3 nM. For `C[C@H]1CC[C@H](Nc2nccc(-c3cccnc3Oc3cc(F)c(NS(=O)(=O)Cc4ccccc4)c(F)c3F)n2)CN1` [Compound 257, 1-Phenyl-N-(2,3,6-trifluoro-4-((3-(2-(((3S,6S)-6-methylpiperidin-3-yl)amino)pyrimidin-4-yl)pyridin-2-yl)oxy)phenyl)methanesulfonamide] the value was 24 nM. To `CCCS(=O)(=O)Nc1cccc(Oc2ncccc2-c2ccnc(N[C@H]3CCCNC3)n2)c1F` [Compound 144, (S)—N-(2-Fluoro-3-((3-(2-(piperidin-3-ylamino)pyrimidin-4-yl)pyridin-2-yl)oxy)phenyl)propane-1-sulfonamide hydrochloride] belongs 370 nM. To `N#Cc1ccc(CS(=O)(=O)Nc2c(F)cc(Oc3ncccc3-c3ccnc(N[C@@H]4CNC[C@@H](F)C4)n3)c(F)c2F)c(F)c1` [Compound 360] belongs 0.8 nM. Consider `CN(C)[C@H]1CC[C@H](Nc2nccc(-c3cccnc3Oc3cc(F)c(NS(=O)(=O)Cc4ccccc4)c(F)c3F)n2)CC1` [Compound 272, N-(4-((3-(2-(((1r,4r)-4-(Dimethylamino)cyclohexyl)amino)pyrimidin-4-yl)pyridin-2-yl)oxy)-2,3,6-trifluorophenyl)-1-phenylmethanesulfonamide hydrochloride], for which the IC50 was determined as 0.15 nM. In turn, `N#Cc1ccc(S(=O)(=O)Nc2ccc(Oc3ncccc3-c3ccnc(N[C@H]4CCCNC4)n3)c(F)c2F)cc1` [Compound 219, (S)-4-cyano-N-(2,3-difluoro-4-((3-(2-(piperidin-3-ylamino)pyrimidin-4-yl)pyridin-2-yl)oxy)phenyl)benzenesulfonamide] returned an IC50 of 53 nM. Against the preceding molecule, the IC50 is about 350-fold higher. For `CC(F)C1CNCC(Nc2nccc(-c3cccnc3Oc3cc(F)c(NS(=O)(=O)Cc4ccccc4)c(F)c3F)n2)C1` (single isomer, unassigned) [Compound 345, 1-Phenyl-N-(2,3,6-trifluoro-4-((3-(2-((5-(1-fluoroethyl)piperidin-3-yl)amino)pyrimidin-4-yl)pyridin-2-yl)oxy)phenyl)methanesulfonamide hydrochloride] the value was 0.17 nM; for `O=S(=O)(Cc1c(F)cccc1Cl)Nc1c(F)cc(Oc2ncccc2-c2ccnc(N[C@@H]3CNC[C@@H](F)C3)n2)c(F)c1F` [Compound 367, 1-(2-Chloro-6-fluorophenyl)-N-(2,3,6-trifluoro-4-((3-(2-(((3S,5S)-5-fluoropiperidin-3-yl)amino)pyrimidin-4-yl)pyridin-2-yl)oxy)phenyl)methanesulfonamide], 0.2 nM.

Molecule `Cc1c(Oc2ncccc2-c2ccnc(N[C@@H]3CNC[C@@](C)(F)C3)n2)cc(F)c(NS(=O)(=O)Cc2ccccc2)c1F` [Compound 292, N-(2,6-Difluoro-4-((3-(2-(((3S,5S)-5-fluoro-5-methylpiperidin-3-yl)amino)pyrimidin-4-yl)pyridin-2-yl)oxy)-3-methylphenyl)-1-phenylmethanesulfonamide] came in with an IC50 of 0.33 nM. `O=S(=O)(Cc1ccccc1F)Nc1c(F)cc(Oc2ncccc2-c2ccnc(NC3CNCC(C4CC4)C3)n2)c(F)c1F` (single isomer, unassigned) [Compound 324, N-(4-((3-(2-((5-Cyclopropylpiperidin-3-yl)amino)pyrimidin-4-yl)pyridin-2-yl)oxy)-2,3,6-trifluorophenyl)-1-(2-fluorophenyl)methanesulfonamide] yielded an IC50 of 0.4 nM. Turning to `O=S(=O)(Cc1ccccc1)Nc1c(F)cc(Oc2ncccc2-c2ccnc(NC3CNCC(CF)C3)n2)c(F)c1F` (single isomer, unassigned) [Compound 277, 1-Phenyl-N-(2,3,6-trifluoro-4-((3-(2-((5-(fluoromethyl)piperidin-3-yl)amino)pyrimidin-4-yl)pyridin-2-yl)oxy)phenyl)methanesulfonamide], the IC50 is 27 nM. Against the preceding molecule, the IC50 is about 68-fold higher. To `O=S(=O)(Nc1ccc(Oc2ncccc2-c2ccnc(N[C@H]3CCCNC3)n2)cc1)c1ccccc1Cl` [Compound 134, (S)-2-Chloro-N-(4-((3-(2-(piperidin-3-ylamino)pyrimidin-4-yl)pyridin-2-yl)oxy)phenyl)benzenesulfonamide hydrochloride] belongs 21 nM.

The molecule `Cc1cc(NS(=O)(=O)Cc2ccccc2)ccc1Oc1ncccc1-c1ccnc(N[C@H]2CCCNC2)n1` [Compound 157, (S)-N-(3-methyl-4-((3-(2-(piperidin-3-ylamino)pyrimidin-4-yl)pyridin-2-yl)oxy)phenyl)-1-phenylmethanesulfonamide] yielded an IC50 of 29 nM. To `N#Cc1ccccc1CS(=O)(=O)Nc1ccc(Oc2ncccc2-c2ccnc(N[C@H]3CCCNC3)n2)c(F)c1F` [Compound 187, (S)-1-(2-cyanophenyl)-N-(2,3-difluoro-4-((3-(2-(piperidin-3-ylamino)pyrimidin-4-yl)pyridin-2-yl)oxy)phenyl)methanesulfonamide] belongs 2.9 nM.

For `CCC(F)(F)CS(=O)(=O)Nc1ccc(Oc2ncccc2-c2ccnc(N[C@H]3CCCNC3)n2)c(F)c1F` [Compound 148, (S)-N-(2,3-Difluoro-4-((3-(2-(piperidin-3-ylamino)pyrimidin-4-yl)pyridin-2-yl)oxy)phenyl)-2,2-difluorobutane-1-sulfonamide hydrochloride], the IC50 stood at 6.5 nM. For `CC(F)C1CNCC(Nc2nccc(-c3cccnc3Oc3cc(F)c(NS(=O)(=O)Cc4ccccc4)c(F)c3F)n2)C1` (single isomer, unassigned) [Compound 347, 1-Phenyl-N-(2,3,6-trifluoro-4-((3-(2-((5-(1-fluoroethyl)piperidin-3-yl)amino)pyrimidin-4-yl)pyridin-2-yl)oxy)phenyl)methanesulfonamide] the value was 49 nM; for `CC(F)(F)C1CNCC(Nc2nccc(-c3cccnc3Oc3cc(F)c(NS(=O)(=O)Cc4ccccc4)c(F)c3F)n2)C1` (racemic) [Compound 337, N-(4-((3-(2-((5-(1,1-Difluoroethyl)piperidin-3-yl)amino)pyrimidin-4-yl)pyridin-2-yl)oxy)-2,3,6-trifluorophenyl)-1-phenylmethanesulfonamide hydrochloride], 8.9 nM; for `O=S(=O)(Cc1ccccc1F)Nc1c(F)cc(Oc2ncccc2-c2ccnc(NC3CNCC(C4CC4)C3)n2)c(F)c1F` (single isomer, unassigned) [Compound 327, N-(4-((3-(2-((5-Cyclopropylpiperidin-3-yl)amino)pyrimidin-4-yl)pyridin-2-yl)oxy)-2,3,6-trifluorophenyl)-1-(2-fluorophenyl)methanesulfonamide], 0.26 nM. For `COc1cccc(CS(=O)(=O)Nc2c(F)cc(Oc3ncccc3-c3ccnc(N[C@@H]4CNC[C@@](C)(F)C4)n3)c(F)c2F)c1` [Compound 291, 1-(3-Methoxyphenyl)-N-(2,3,6-trifluoro-4-((3-(2-(((3S,5S)-5-fluoro-5-methylpiperidin-3-yl)amino)pyrimidin-4-yl)pyridin-2-yl)oxy)phenyl)methanesulfonamide] the value was 0.28 nM.
